Source: US20050203110A1, “Mitotic kinesin inhibitors” (priority 2002, published 2005)

Target: T1, human KSP motor domain (KSP(367H)) (Homo sapiens, UniProt P52732)
T1 construct: were used to amplify the motor domain and the neck linker region; made in house; host or cells: E. coli BL21 (DE3), pRSETa
T1 sequence (P52732 18-359 limits assumed): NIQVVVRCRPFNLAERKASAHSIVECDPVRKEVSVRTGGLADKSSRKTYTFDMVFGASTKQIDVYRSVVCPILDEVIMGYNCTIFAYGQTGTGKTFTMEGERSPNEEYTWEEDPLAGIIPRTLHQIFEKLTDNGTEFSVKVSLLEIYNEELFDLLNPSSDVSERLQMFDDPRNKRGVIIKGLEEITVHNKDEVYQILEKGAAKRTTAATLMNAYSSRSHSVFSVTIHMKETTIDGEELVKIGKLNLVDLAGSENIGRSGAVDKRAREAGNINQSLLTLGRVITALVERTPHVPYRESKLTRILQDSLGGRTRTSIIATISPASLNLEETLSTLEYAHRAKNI
Assay: Kinesin ATPase In Vitro Assay
Type: biochemical
Conditions: kinesin motor domain with microtubules, 1 mM ATP, 23° C.; free phosphate by quinaldine red/ammonium molybdate, absorbance 540 nm
From the text: I. Kinesin ATPase In Vitro Assay
Cloning and Expression of Human Poly-Histidine Tagged KSP Motor Domain (KSP(367H))
Plasmids for the expression of the human KSP motor domain construct were cloned by PCR using a pBluescript full length human KSP construct (Blangy et al., Cell, vol. 83, pp1159-1169, 1995) as a template. The N-terminal primer 5′-[…] (SEQ.ID.NO.: 1) and the C-terminal primer 5′-[…] […] (SEQ.ID.NO.: 2) were used to amplify the motor domain and the neck linker region. The PCR products were digested with AseI and XhoI, ligated into the NdeI/XhoI digestion product of pRSETa (Invitrogen) and transformed into E. coli BL21 (DE3).
Cells were grown at 37° C. to an OD600 of 0.5. After cooling the culture to room temperature expression of KSP was induced with 100 μM IPTG and incubation was continued overnight. Cells were pelleted by centrifugation and washed once with ice-cold PBS. Pellets were flash-frozen and stored −80° C.
Cell pellets were thawed on ice and resuspended in lysis buffer (50 mM K-HEPES, pH 8.0, 250 mM KCl, 0.1% Tween, 10 mM imidazole, 0.5 mM Mg-ATP, 1 mM PMSF, 2 mM benzimidine, 1× complete protease inhibitor cocktail (Roche)). Cell suspensions were incubated with 1 mg/ml lysozyme and 5 mM β-mercaptoethanol on ice for 10 minutes, followed by sonication (3×30 sec). All subsequent procedures were performed at 4° C. Lysates were centrifuged at 40,000×g for 40 minutes. Supernatants were diluted and loaded onto an SP Sepharose column (Pharmacia, 5 ml cartridge) in buffer A (50 mM K-HEPES, pH 6.8, 1 mM MgCl2, 1 mM EGTA, 10 μM Mg-ATP, 1 mM DTT) and eluted with a 0 to 750 mM KCl gradient in buffer A. Fractions containing KSP were pooled and incubated with Ni-NTA resin (Qiagen) for one hour. The resin was washed three times with buffer B (Lysis buffer minus PMSF and protease inhibitor cocktail), followed by three 15-minute incubations and washes with buffer B. Finally, the resin was incubated and washed for 15 minutes three times with buffer C (same as buffer B except for pH 6.0) and poured into a column. […]
The kinesin motor domain is incubated with microtubules, 1 mM ATP (1:1 MgCl2:Na-ATP), and compound at 23° C. in buffer containing 80 mM K-HEPES (pH 7.0), 1 mM EGTA, 1 mM DTT, 1 mM MgCl2, and 50 mM KCl. […] Free phosphate from the ATP hydrolysis reaction is measured via a quinaldine red/ammonium molybdate assay by adding 150 μl of quench C buffer containing a 2:1 ratio of quench A:quench B. Quench A contains 0.1 mg/ml quinaldine red and 0.14% polyvinyl alcohol; quench B contains 12.3 mM ammonium molybdate tetrahydrate in 1.15 M sulfuric acid. The reaction is incubated for 10 minutes at 23° C., and the absorbance of the phospho-molybdate complex is measured at 540 nm.

| IC50 [µM] | SMILES |
| --- | --- |
| ≤ 50 | CCC(c1nc2cnccc2c(=O)n1Cc1ccccc1)N(CCN(C)C)C(=O)c1ccc(Br)cc1 (racemic) [Compound 3-7, 2-[1′-(N-4-bromobenzoyl)-(N,N-dimethylethylenediamino)propyl]-3-benzyl-pyrido[3,4-d]pyrimidin-4(3H)-one] |
| ≤ 50 | CCC(c1nc2ncccc2c(=O)n1Cc1ccccc1)N(CCN(C)C)C(=O)c1ccc(Br)cc1 (stereo not shown) [Compound 1-6, N-[1-(3-benzyl-4-oxo-3,4-dihydropyrido[2,3-d]pyrimidin-2-yl)propyl]-4-bromo-N-[2-(dimethylamino)ethyl]benzamide] |
| ≤ 50 | CCC(c1nc2c(c(=O)n1Cc1ccccc1)CCCN2)N(CCN(C)C)C(=O)c1ccc(Br)cc1 (stereo not shown) [Compound 2-2, N-[1-(3-benzyl-4-oxo-3,4,5,6,7,8-hexahydropyrido[2,3-d]pyrimidin-2-yl)propyl]4-bromo-N-[2-(dimethylamino)ethyl]benzamide] |
| ≤ 50 | CCC(c1nc2cccnc2c(=O)n1Cc1ccccc1)N(CCN(C)C)C(=O)c1ccc(Br)cc1 (stereo not shown) [Compound 5-6, N-[1-(3-benzyl-4-oxo-3,4-dihydropyrido[3,2-d]pyrimidin-2-yl)propyl]-4-bromo-N-[2-(dimethylamino)ethyl]benzamide] |
